Data taken from US8003659B2, “Macrocyclic serine protease inhibitors” (Indenix Pharmaceuticals, Inc., priority 2008, dated 2011).

Columns and labels:
[1] = system: HCV genotype 2a infectious virus; assay: HCV genotype 2a infectious virus assay; format: cell-based, HCV (strain JFH-1; genotype 2a); conditions: Hepatitis C virus
Experimental: Compounds were tested in a HCV genotype 2a infectious virus assay and the results are summarized in Table 7, wherein A represents a value smaller than 1 μM, and B represents a value between 1 μM to 10 μM, C represents a value between 10 μM to 75 μM and D represents a value greater than 75 μM.
The HCV in vitro infection core ELISA assay measures the ability of a test compound to inhibit replication of an infectious HCV (strain JFH-1; genotype 2a) in cell culture. […] We have developed this model for determining the efficacy of antiviral compounds against an infectious virus in vitro using HCV producing cells (HPC), a proprietary Huh-7-derived cell sublineage capable of propagating the JFH-1 HCV virus. The readout of the assay is quantification of HCV core protein by ELISA 5 days post infection with JFH-1 virus and treatment with a test compound.
Ninety-six-well Corning Costar plates were seeded with HPC cells at a density of 3.0×10^3 cells per well in 50 μL of Huh-7 media. Compound stock solutions were made up freshly in Huh-7 media (DMEM (containing glucose, L-glutamine and sodium pyruvate), 10% FBS, 100 IU/mL penicillin, 100 μg/mL streptomycin, 2 mM GlutaMAX, 1% MEM non-essential amino acids) as 2× stock. Seven additional 3-fold drug dilutions were prepared from the 2× stocks in Huh-7 media. At least 4 hours after HPC cells were seeded, the media in the 96-well culture plates was aspirated and 50 μL of each drug dilution and 50 μL of JFH-1 HCV was added to each well.
At 16 hrs post treatment and infection, the virus inoculum was removed by aspiration. The cultures were treated at the same final concentrations of drug diluted to 1× in Huh-7 media to a final volume of 200 μL. Cells were incubated in the presence of drug for 4 additional days at 37° C./5% CO2.
Media was removed from the plates by aspiration. Cells were fixed with 250 μL 1:1 acetone:methanol for 90 seconds, washed once in PBS and then three times with 1×KPL wash solution. The assay plates were then blocked with 150 μL/well 10% FBS-TNE (50 mM Tris-HCl (pH 7.5; Sigma), 100 mM NaCl, 1 mM EDTA with 10% FBS) for 1 hr at room temperature. Cells were washed three times with 1×KPL wash solution and incubated with 100 μL/well anti-hepatitis C core mAb (1 mg/mL stock diluted 1:500 in 10% FBS-TNE) for 2 hours at 37° C. Cells were washed three times with 1×KPL wash solution and incubated with 100 μL/well HRP-goat anti-mouse antibody (diluted 1:2,500 in 10% FBS-TNE) for 1 hr at 37° C.
OPD solution was prepared using 1 OPD tablet+12 mL citrate/phosphate buffer (16 mM citric acid, 27 mM Na2HPO4) plus 5 μL 30% H2O2 per plate. Cells were washed three times with 1×KPL wash solution and developed with 100 μL/well OPD solution for 30 minutes in the dark at room temperature. The reaction was stopped with 100 μL/well of 2NH2SO4, and absorbance measured at A490 nm in a Victor^3 V 1420 multilabel counter (Perkin Elmer). The EC50 values for each compound were calculated from dose response curves from the resulting best-fit equations determined by Microsoft Excel and XLfit 4.1 software. The negative control for inhibition of virus replication was untreated HPC cells infected with the JFH-1 HCV virus strain. The negative ELISA control was untreated, uninfected HPC cells. The positive ELISA control was untreated HPC cells infected the JFH-1 HCV virus strain.

[2] = Cytotoxicity evaluation (Cell Titer 96 AQueous One Solution Cell Proliferation Assay); format: cell-based; conditions: human; GS4.1 cells, cellular viability
Experimental: For cytotoxicity evaluation, GS4.1 cells were treated with compounds as described above and cellular viability was monitored using the Cell Titer 96 AQueous One Solution Cell Proliferation Assay (Promega). CC50 values were determined from the % cytotoxicity versus concentration data with Tecan Magellan software as described above.

mutant protease A156S = assay: Resistance profile, mutant protease A156S; format: biochemical, HCV; conditions: ratio of inhibitory activity against mutant enzyme over non-mutant enzyme
Experimental: (§1) General procedure: Measurement of the inhibitory effect of compounds on HCV protease activity was performed with the SensoLyte™ 620 HCV Protease Assay kit from AnaSpec, Inc. (San Jose, Calif.) under conditions described by the supplier using 1.2 nM HCV NS3-NS4A protease, which was obtained according to Taremi et al. (Protein Science, 1998, 7, 2143-2149). The compounds were tested at a variety of concentrations in assay buffer containing a final DMSO concentration of 5%. Reactions were allowed to proceed for 60 min at room temperature and fluorescence measurements were recorded with a Tecan Infinity Spectrofluorimeter. The IC50 values were determined from the percent inhibition versus concentration data using a sigmoidal non-linear regression analysis based on four parameters with Tecan Magellan software.
(§2) Compounds were evaluated against three mutant proteases R155Q, A156S, and D168A, as summarized in Table 8, wherein A represents a value smaller than 1, and B represents a value between 1 to 10, and C represents a value greater than 10. The fold of change in inhibitory activity was determined by measuring the ratio of the inhibitory activity of a compound against a mutant enzyme over the inhibitory activity of the same compound against non-mutant enzyme. The inhibitory activity was determined using the procedure as described in Example 31.

mutant protease R155Q = assay: Resistance profile, mutant protease R155Q; format: biochemical, HCV; conditions: ratio of inhibitory activity against mutant enzyme over non-mutant enzyme
Experimental: as §1, §2

Q: Which results are given for `COc1ccc2c(O[C@H]3C[C@H]4C(=O)N(C)CCCC/C=C\[C@@H]5C[C@@]5(C(=O)NS(=O)(=O)C5CC5)NC(=O)N4C3)cc(-c3nc(C(C)C)cs3)nc2c1Cl` [Compound 62d, (Z)-(4R,6S,15S,17S)-[17-[8-chloro-7-methoxy-2-(4-isopropylthiazol-2-yl)quinolin-4-yloxy]-13-N-methyl-2,14-dioxo-1,3,13-triazatricyclo[13.3.0.0]octadec-7-en-4-yl]carbonyl(cyclopropyl)sulfonamide]?
A: EC50 [1]: < 1 µM; CC50 [2]: > 75 µM; Fold-Change A156S (mutant protease A156S): A (A represents a value smaller than 1); Fold-Change R155Q (mutant protease R155Q): A (A represents a value smaller than 1)
